These results are taken from ChEMBL document CHEMBL1201862, “PubChem BioAssay data set” (2004).

Holding throughout (test): NCI tumour cell line growth inhibition, 48 h
Test [1] concerns PC-3.
Test [2] concerns A498.
The subject of test [3] is SNB-19.
The test system of test [4] is CCRF-CEM.
Test [5] relates to KM12.
The subject of test [6] is OVCAR-5.
Test [7] concerns SN12C.
Test [8] relates to SK-MEL-5.
Test [9] concerns MDA-MB-231.
The subject of test [10] is UO-31.
The test system of test [11] is MCF7.
In test [12] the test system is LOX IMVI.
For test [13], the system named is RXF 393.
Test [14] concerns SW-620.
In test [15] the test system is UACC-257.
Test [16] has as its system SK-MEL-2.
In test [17] the test system is HOP-92.
Test [18] concerns IGROV-1.
Test [19] concerns SNB-75.
In test [20] the test system is OVCAR-3.

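Five compound concentrations were applied to cells in 96-well plates for 48 hours; endpoints were derived by simple linear interpolation of the resulting dose-response curve. GI50 marks 50% less growth.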 Calls of active or inactive are those of the source. No stated cut-off is given here; in the data, active = GI50 up to about 1.1 µM and inactive = higher.

As to `Cc1ccccc1C1OC1C(=O)c1ccccc1N` (configuration not stated), the GI50 is 46.6 µM (inactive) in [1]; > 100 µM (inactive) in test [2]; 56.4 µM (inactive) in test [3]; > 100 µM (inactive) in [4]; 39.7 µM (inactive) in test [5]; > 100 µM (inactive) in [6]. For the same molecule, the GI50 in test [7] is 78.7 µM (inactive); in test [8], 44.5 µM (inactive); in [9] it was 31.6 µM (inactive); in test [10] it was 78.7 µM (inactive); in [11], 55.3 µM (inactive); in [12], 34.9 µM (inactive). For the same molecule, the GI50 is 90.4 µM (inactive) in [13]; 80.4 µM (inactive) in test [14]; 74.3 µM (inactive) in [15]; 43.3 µM (inactive) in test [16]; > 100 µM (inactive) in test [17].
Turning to `Brc1ccc(-c2ccc(-c3ccc(-c4ccc(Br)s4)s3)s2)s1`, the GI50 in [1], in [2], in test [4], in [5], in [6] and in [7] was > 100 µM (inactive) throughout. For the same molecule, the GI50 in [8], in test [9], in [18], in test [19], in [10] and in [11] was > 100 µM (inactive) each time. For the same molecule, the GI50 in test [20], in test [12], in test [13], in [14], in [15] and in test [17] was > 100 µM (inactive) each time.
For `CS(=O)(=O)c1ccc(/N=C/C=C/Nc2ccc(S(C)(=O)=O)cc2)cc1`, the GI50 in test [1] was > 100 µM (inactive); in [2], > 100 µM (inactive); in [3] it was > 100 µM (inactive); in test [4] it was > 100 µM (inactive); in test [5], 27.4 µM (inactive); in test [6] it was > 100 µM (inactive). Also, the GI50 in test [7], in test [8], in test [9], in [18], in [19] and in test [10] was > 100 µM (inactive) throughout. The GI50 in test [11], in test [20], in test [13], in test [14], in test [15] and in test [16] was > 100 µM (inactive) throughout. In test [17], the GI50 was > 100 µM (inactive).
With `CN(C)c1ccc(-c2c(C#N)c(O)n(NS(=O)(=O)c3ccccc3)c(=O)c2C#N)cc1`, the GI50 in test [1] is > 100 µM (inactive); in [2], > 100 µM (inactive); in test [3] it was > 100 µM (inactive); in test [4] it was > 100 µM (inactive); in test [5] it was > 100 µM (inactive); in test [6] it was 0.912 µM (active). Also, the GI50 in test [7], in test [8], in [9], in test [18], in test [19] and in [11] was > 100 µM (inactive) throughout. Moreover, the GI50 in test [12], in test [13], in test [14], in [15], in test [16] and in [17] was > 100 µM (inactive) in each case.
As to `COc1ccc(/N=[N+](\[O-])c2ccc(OC)cc2)cc1`, the GI50 in [1], in test [2], in test [3], in test [5], in test [6] and in test [8] was > 100 µM (inactive) in each case. Besides, the GI50 in test [9], in test [18], in test [19], in test [10], in test [11] and in test [20] was > 100 µM (inactive) in each case. Further, the GI50 in [13], in test [15], in test [16] and in test [17] was > 100 µM (inactive) in each case.
As for `CCN1C(=O)/C(=C2\SC(c3ccccc3)(c3ccccc3)c3ccccc32)SC1=S`, the GI50 in test [1] is 74.5 µM (inactive); in test [2], 46 µM (inactive); in test [3] it was 10.1 µM (inactive); in test [4], > 100 µM (inactive); in test [5], > 100 µM (inactive); in test [6], > 100 µM (inactive). The GI50 was > 100 µM (inactive) in test [7]; > 100 µM (inactive) in [8]; 72.3 µM (inactive) in test [9]; 70.3 µM (inactive) in [18]; 53.1 µM (inactive) in test [19]; > 100 µM (inactive) in [10]. In addition, the GI50 in test [11] was > 100 µM (inactive); in [20] it was 51.9 µM (inactive); in test [12] it was 38.6 µM (inactive); in test [13], > 100 µM (inactive); in test [15] it was > 100 µM (inactive); in test [17], 30.5 µM (inactive).
Take `CCN(CC)CCCNC(=O)c1cc2cc(NC(=O)c3cc4cc([N+](=O)[O-])ccc4[nH]3)ccc2[nH]1`: the GI50 in [1] was > 100 µM (inactive); in test [2] it was 27.4 µM (inactive); in [3], > 100 µM (inactive); in [5] it was 7.21 µM (inactive); in test [6], > 100 µM (inactive); in test [7], > 100 µM (inactive). Besides, the GI50 in test [8] was > 100 µM (inactive); in [9], 54 µM (inactive); in test [18] it was > 100 µM (inactive); in test [19], > 100 µM (inactive); in test [10], > 100 µM (inactive); in test [11], 48.1 µM (inactive). Further, the GI50 in [20] was 7.89 µM (inactive); in [13], > 100 µM (inactive); in test [14], 68.2 µM (inactive); in [15], 29.9 µM (inactive); in [16], > 100 µM (inactive); in test [17] it was 37.5 µM (inactive).
`CCN(CC)CCCOc1cc2c(cc1OC)C(=O)N1CCC[C@H]1C=N2`: the GI50 in test [1] is 42.5 µM (inactive); in test [2], 29.6 µM (inactive); in test [3] it was 49.1 µM (inactive); in test [4], 33.2 µM (inactive); in [5], 20 µM (inactive); in test [6] it was 49.8 µM (inactive). Also, the GI50 in test [7] is 42.3 µM (inactive); in test [8] it was 19.6 µM (inactive); in [9], 24.2 µM (inactive); in test [10], 39.9 µM (inactive); in test [11], 43 µM (inactive); in [20] it was 24.2 µM (inactive). The GI50 in test [12] is 16.4 µM (inactive); in [13], 25.8 µM (inactive); in [14], 17.2 µM (inactive); in test [15], 53.7 µM (inactive); in test [16], 46 µM (inactive); in [17], 24.6 µM (inactive).
